Entries after “also recorded” stand apart in the source; their conditions may differ.
How the values were obtained:
[1] = test system: CTX-injured TA muscles; assay: Muscle regeneration after CTX-induced injury, intramuscular HIF-c2; details: for total number of Pax7+ SCs per TA muscle section: vs DMSO
Procedure: To induce Cre activity in mice with the Pax7^cre/ERT2 allele, tamoxifen (20 mg/ml in corn oil) was intraperitoneally administrated for 3 consecutive days (100 mg/Kg/day). To assess myofiber damage, 1% Evan's blue (4 ml/Kg in saline) was intraperitoneally administrated 1 day before the euthanasia. To trace proliferative cells, EdU (50 mg/Kg in DMSO) was intraperitoneally administrated 1 day before the euthanasia. For CTX-induced muscle injury, CTX (0.5 nmol in saline) was injected into TA muscle.
For staining muscle sections, muscle sections were fixed with 2% paraformaldehyde (PFA)/PBS for 10 mins, quenched with 50 mM glycine for 10 mins, permeabilized with 0.5% Triton X-100 for 10 mins. To reduce background fluorescence due to endogenous mouse IgG, Mouse on Mouse (M.O.M.) Blocking Reagent (Vector Lab) was used according to the manufactures' instruction. Muscle sections were blocked in 5% BSA/5% normal goat serum in PBS for 1 hr and incubated with primary antibodies: anti-Pax7 (1:5; DSHB), anti-HIF-2α (1:250; Novus Bio.), anti-HIF-1α (1:250; Novus Bio.), anti-Ki67 (1:1,000; Abcam), anti-Laminin B2 (1:1,000; Milipore), anti-embryonic MyHC (1:50, DSHB), anti-MyHC type I, IIA, or IIB (1:50, DSHB) overnight at 4° C. For EdU staining, Click-iT EdU Fluorescence Kit (Life technologies) was used according to the manufactures' instruction before the application of primary antibodies. Muscle sections were washed in PBS with 0.1% Tween-20, incubated with Alexa Fluor dye-labeled secondary antibodies at room temperature for 1 hr and washed. Sections were mounted with DAPI-containing mounting medium (Life technologies).
Peak isometric torque of the ankle dorsiflexors (tibialis anterior, extensor digitorum longus and extensor hallicus longus muscles) was assessed in vivo as previously described (47). Briefly, mice were anaesthetized with 1.75% isoflurane mixed with oxygen. The left hindlimb was depilated and aseptically prepared before the foot was placed into a foot plate attached to a servomoter (Model 300C-LR; Aurora Scientific, Aurora, Ontario, Canada). Two Pt-Ir electrode needles (Model E2-12; Grass Technologies, West Warwick, RI, USA) were inserted percutaneously on either side of the peroneal nerve. The ankle joint was secured at a 90° angle and body temperature was maintained at 37° C. throughout functional testing. Peak isometric torque was achieved by varying the current delivered to the peroneal nerve at a frequency of 200 Hz and a 0.1-ms square wave pulse. Torques (Nomm) were normalized by the body mass (kg^−1) to account for differences in body size among mice. Following peak isometric torque measurements, the dorsiflexors were subject to 100 electronically stimulated eccentric contractions in order to induce injury. During each contraction the foot was passively moved from the 0° position (perpendicular to tibia) to 20° of dorsiflexion. The dorsiflexors were stimulated at 200 Hz for a 100-ms isometric contraction followed by an additional 50 ms of stimulation while moving from 20° dorsiflexion to 20° plantarflexion at an angular velocity of 800°/s. Eccentric contractions were repeated every 10 seconds and the entire protocol lasted about […].
Muscle sections were stained with Sirius red solution (0.1% in picric acid) for 15 mins, washed with 1% acetic acid for 3 times. Sections were mounted with Cytoseal™ 60 mounting medium (Thermo Fisher Scientific), followed with imaging.
To investigate effects of HIF-2α inhibition on muscle regeneration, HIF-c2 or the carrier solution (1% DMSO) was administered into CTX-injured TA muscles of C57BL/6 mice (daily injections between 1-5 dpi; FIG. 5A). EdU was administrated in the same mice to trace cell proliferation.

[2] = test system: C2Cl2 myoblasts; assay: RT-qPCR of HIF-2α and Spry1 mRNA in C2Cl2 myoblasts; type: cell-based
Procedure: C2Cl2 myoblasts were transfected with pCMEGIP-HIF2αTM or control empty pCMEGIP plasmids using TransIT-X2 (Mirus Bio.). To differentiate C2Cl2 myoblasts, cells were cultured to reach 80% confluency and further cultured in DMEM (4.5 g/L glucose) medium supplemented with 2% horse serum for 5 days.
For measure relative expression levels, total RNA was isolated from C2Cl2 myoblasts using TRIzol or from FACS sorted satellite cells using PicoPure RNA Isolation Kit (Thermo Fisher Scientific). 1 μg total RNA from C2Cl2 myoblasts (or 0.2 μg total RNA from satellite cells) was used in 20 μl reverse transcription reactions (Maxima; Life technologies) and diluted into 100 μl. 2 μl diluted cDNA was used in 8 μl quantitative PCR reactions (SsoAdvanced™ Universal SYBR Green mix; Bio-Rad) on a BioRad CFX384™ Real-Time PCR Detection System. Cq-values were determined and expression values were calculated by BioRad CFX Manager™ Software. Relative expression values were normalized to inner reference genes Rps18 and Tbp of each biological sample. The following primers were used for quantifying expression levels: […]

[3] = test system: CTX-injured tibialis anterior (TA) muscles of hypoxia-exposed mice; assay: Muscle regeneration after CTX injury under eubaric hypoxia; type: in vivo, wildtype B6 mice; details: hypoxia 17% pO2, 10 dpi
Procedure: To gain insights on hypoxic effect on muscle regeneration, wildtype B6 mice (12-week old) were treated with eubaric hypoxia (17% pO2, 1 atm) in hypoxia chamber for 4 weeks and injected with CTX (0.5 nmol, 100 μL) into tibialis anterior (TA) muscles at day 18. Mice under normoxia (21% pO2, 1 atm) were injured with CTX as a control.
To assess if HIF-2α inhibition benefits regeneration under experimental hypoxia, HIF-2α inhibitor HIF-C2 (5 mg in 0.1% DMSO) or vehicle (0.1% DMSO) were intramuscularly administered to the injured muscles at days 2, 3 and 4 post-injury (2-4 dpi).

[4] = test system: tibialis anterior (TA) muscles of mTR/Mdx mice; assay: Intramuscular HIF-C2 in dystrophic TA muscle of mTR/Mdx mice; type: in vivo
Procedure: To reveal the potential therapeutic effects of HIF-2α inhibition on muscular dystrophy, the HIF-2α inhibitor HIF-C2 was intramuscularly injected (5 mg/injection; total 3 doses on day 1, day 4, and day 7) into tibialis anterior (TA) muscles of mTR/Mdx mice (2nd generation; males: n=3 and females: n=3; 16-week old). The contralateral TA muscles received vehicle (0.1% DMSO) injections followed the same injection regime. HIF-C2 and vehicle-treated TA muscles were collected for histological examinations at 28 days after the first treatment.
To investigate whether HIF-C2 improves satellite cell function in mTR/Mdx mice, Pax7 (the definitive marker of satellite cells) and Ki67 (a proliferation marker) immunostaining were carried out on muscle cross-sections and the number of Pax7+pos cells (total number of satellite cells) and Pax7+pos/Ki67+pos cells (proliferative satellite cells) per muscle section were enumerated.
Muscle fibrosis is one of the characteristic pathological changes of Duchenne muscular dystrophy (Klingler et al., Acta Myol 31, 184-195 (2012)). […] Thus, Masson's trichrome staining was performed to reveal the amount of collagen in endomysium.

[5] = molecular target: HIF-2α PAS-B (Homo sapiens, UniProt Q99814); details: binds within the internal cavity of HIF-2α PAS-B; cited from earlier work
[6] = molecular target: full-length HIF-2 transcription factor (Homo sapiens, UniProt Q99814); details: cited from earlier work
[7] = test system: HIF-2; details: living cells; cited from earlier work
[8] = molecular target: HIF-1 (Homo sapiens, UniProt Q16665); details: selectivity for the HIF-2 isoform; cited from earlier work
[9] = test system: clear cell renal cell carcinoma (ccRCC); details: patients with ccRCC; cited from earlier work
[10] = test system: HIF-2α target genes in tumor cells; details: cited from earlier work
[11] = test system: mouse xenograft models; details: cited from earlier work
[12] = test system: HIF-2α; details: cited from earlier work
[13] = test system: HIF-1a; details: cited from earlier work
[14] = shRNA expression in C2Cl2 myoblasts

full-length HIF-2 transcription factor, sequence (Q99814 whole entry): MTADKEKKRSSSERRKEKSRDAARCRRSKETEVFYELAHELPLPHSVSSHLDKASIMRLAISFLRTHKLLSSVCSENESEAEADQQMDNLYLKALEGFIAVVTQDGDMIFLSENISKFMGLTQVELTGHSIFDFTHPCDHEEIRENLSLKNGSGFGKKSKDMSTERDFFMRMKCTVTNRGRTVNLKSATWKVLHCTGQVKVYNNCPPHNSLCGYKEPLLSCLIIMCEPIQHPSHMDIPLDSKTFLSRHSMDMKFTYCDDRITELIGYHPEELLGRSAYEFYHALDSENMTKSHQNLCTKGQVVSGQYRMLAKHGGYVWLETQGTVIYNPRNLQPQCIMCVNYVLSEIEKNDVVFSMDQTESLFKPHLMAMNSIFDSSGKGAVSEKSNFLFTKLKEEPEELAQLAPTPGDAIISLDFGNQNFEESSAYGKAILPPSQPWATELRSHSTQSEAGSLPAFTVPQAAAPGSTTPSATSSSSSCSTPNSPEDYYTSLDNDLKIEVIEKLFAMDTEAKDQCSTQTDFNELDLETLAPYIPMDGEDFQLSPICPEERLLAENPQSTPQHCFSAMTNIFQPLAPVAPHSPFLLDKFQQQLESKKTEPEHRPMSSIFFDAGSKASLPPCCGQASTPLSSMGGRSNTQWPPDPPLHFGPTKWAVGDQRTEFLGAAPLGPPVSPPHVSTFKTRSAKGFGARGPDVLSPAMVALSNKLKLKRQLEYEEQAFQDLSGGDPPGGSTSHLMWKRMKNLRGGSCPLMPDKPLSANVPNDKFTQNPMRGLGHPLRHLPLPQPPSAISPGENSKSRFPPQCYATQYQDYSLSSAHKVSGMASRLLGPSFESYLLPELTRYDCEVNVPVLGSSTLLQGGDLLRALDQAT
HIF-1, sequence (Q16665 whole entry, canonical isoform): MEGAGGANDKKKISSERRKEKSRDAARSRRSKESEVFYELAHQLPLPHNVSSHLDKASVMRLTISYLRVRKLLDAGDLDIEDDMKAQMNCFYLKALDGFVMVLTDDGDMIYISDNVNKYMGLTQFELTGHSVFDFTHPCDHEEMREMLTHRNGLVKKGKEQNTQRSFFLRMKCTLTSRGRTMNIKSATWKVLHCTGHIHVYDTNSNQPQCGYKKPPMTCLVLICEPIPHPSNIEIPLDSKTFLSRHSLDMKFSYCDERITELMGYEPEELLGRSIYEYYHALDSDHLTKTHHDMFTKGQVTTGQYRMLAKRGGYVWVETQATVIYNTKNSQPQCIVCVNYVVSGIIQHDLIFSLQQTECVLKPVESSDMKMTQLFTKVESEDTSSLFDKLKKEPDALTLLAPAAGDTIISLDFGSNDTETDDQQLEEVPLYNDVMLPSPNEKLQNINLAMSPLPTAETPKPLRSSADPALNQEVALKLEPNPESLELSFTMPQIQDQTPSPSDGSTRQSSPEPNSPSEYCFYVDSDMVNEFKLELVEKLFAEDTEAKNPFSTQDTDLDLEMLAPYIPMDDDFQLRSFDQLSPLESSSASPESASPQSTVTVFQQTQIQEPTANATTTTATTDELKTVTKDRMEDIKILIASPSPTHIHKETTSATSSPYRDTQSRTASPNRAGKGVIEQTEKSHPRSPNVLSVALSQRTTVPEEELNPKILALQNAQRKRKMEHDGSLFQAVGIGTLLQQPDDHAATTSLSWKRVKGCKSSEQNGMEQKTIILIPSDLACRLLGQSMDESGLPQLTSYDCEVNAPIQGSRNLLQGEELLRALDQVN
HIF-2α PAS-B, sequence (Q99814 240-350 limits assumed): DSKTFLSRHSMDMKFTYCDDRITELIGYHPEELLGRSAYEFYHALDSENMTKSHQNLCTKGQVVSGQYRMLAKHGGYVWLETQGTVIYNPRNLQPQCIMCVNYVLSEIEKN

Molecule: O=[N+]([O-])c1c(Nc2cc(F)cc(Cl)c2)ccc2nonc12 [HIF-C2, N-(3-chloro-5-fluorophenyl)-4-nitrobenzo[c][1,2,5]oxadiazol-5-amine]
- Pax7+/EdU+ activated SCs per TA muscle section ([1]; 3 dpi, vs 1% DMSO carrier): increased
- expression of HIF-2α in treated muscle ([1]; 7 dpi): reduced
- expression of MyoD in treated muscle ([1]; 7 dpi): reduced
- expression of eMyHC in treated muscle ([1]; 7 dpi): reduced
- myofiber regeneration ([1]; 7 dpi): improved
- recovery of the maximal torque measured before injury ([1]; 7 dpi, n=6, peroneal nerve stimulation): ~53%
- total number of Pax7+ SCs per TA muscle section ([1]; 7 dpi): increased
- total number of Pax7+ SCs per TA muscle section ([1]; 10 dpi): increased
- fibrosis (Sirius red staining for collagen) ([1]; 30 dpi): no overt sign of fibrosis
- myofiber cross sectional areas ([1]; 30 dpi): increased
- numbers of Pax7+ SCs vs control muscles ([1]; 30 dpi): comparable numbers
- recovery of the strength (maximal torque) ([1]; 30 dpi, n=3): ~90%
- HIF-2α expression in muscle (including SCs) ([1]; intramuscular, 5 mg/injection/day, 3 consecutive days): reduced HIF-2α expression
- HIF-2α mRNA level ([2]; HIF-c2 100 μM, C2Cl2 myoblasts): unchanged
- Spry1 mRNA level ([2]; HIF-c2 100 μM, C2Cl2 myoblasts): decreased; also recorded: reduced
- muscle regeneration under hypoxia [3]: improved
- percentage of Ki67+ proliferating satellite cells [3]: improved satellite cell proliferation under hypoxia to a level better than the normoxic condition
- MuSC (Pax7+) number ([3]; 5 mg i.m. at 2-4 dpi, vs vehicle): increased
- total number of satellite cells (Pax7+pos) per muscle section ([4]; female mTR/Mdx mice): elevated
- number of proliferative satellite cells (Pax7+pos/Ki67+pos) ([4]; female mTR/Mdx mice, 28 days post-treatment, vs control): comparable
- number of centralized nuclei in a myofiber ([4]; male mTR/Mdx mice): increased
- number of proliferative satellite cells (Pax7+pos/Ki67+pos) ([4]; male mTR/Mdx mice): significantly increased
- total number of satellite cells (Pax7+pos) per muscle section ([4]; male mTR/Mdx mice): significantly increased
- myofiber cross-sectional area (CSA), ImageJ analysis ([4]; males and females, 28 days after first treatment): increase of myofiber caliber
- myofiber size (H&E staining) ([4]; males and females, 28 days after first treatment, 5 mg/injection x3, vs vehicle): larger myofibers
- amount of collagen in endomysial space (Masson's trichrome staining) ([4]; vs vehicle-treated control muscles): remarkably reduced
- Kd [5]: 81 nM
- heterodimerization of the full-length HIF-2 transcription factor [6]: disrupts heterodimerization
- HIF-2 DNA binding and transcription of its target genes [7]: disrupting HIF-2 DNA binding and inhibiting the transcription of its target genes
- activity to antagonize HIF-1 [8]: no activity to antagonize HIF-1

Molecule: CS(=O)(=O)c1ccc(Oc2cc(F)cc(C#N)c2)c2c1[C@H](O)C(F)(F)C2 [PT2385]
- clinical activity [9]: demonstrated clinical activity

Molecule: CS(=O)(=O)c1ccc(Oc2cc(F)cc(C#N)c2)c2c1[C@H](O)[C@H](F)[C@@H]2F [PT2977]
- expression of HIF-2α target genes [10]: inhibited
- tumor regression [11]: induced regression

Molecule: O=C(CCCCCCC(=O)Nc1ccccc1)NO [Vorinostat]
- reversal of epigenetic silencing of HIF-2α [12]: can reverse the epigenetic silencing of HIF-2α
- reversal of epigenetic silencing of HIF-1a [13]: not HIF-1a

B1: HIF-2α shRNA #1: For HIF-2α knockdown, HIF-2α shRNA oligos ... cloned into pMSCV-P2GM retrovirus plasmids; HIF-2α shRNA #1 oligo (SEQ ID NO: 18) (nucleic acid)
DNA: TGCTGTTGACAGTGAGCGAACACTTGATGTGGAAACGTATTAGTGAAGCCACAGATGTAATACGTTTCCACATCAAGTGTGTGCCTACTGCCTCGGA
- HIF-2α mRNA level [2, 14]: reduced
- Spry1 mRNA level [2, 14]: reduced
